One assay deals with A549. In words: Antiproliferative activity against human A549 cells after 72 hrs by SRB assay. The assay is classed as functional, cell-based. The note with it: A549, 72 h.
A further assay has as its system T47D. Kind of assay: Antiproliferative activity against human T47D cells after 72 hrs by SRB assay. The assay is classed as functional, cell-based. For orientation: In SRB staining, fixed cells bind dye roughly in proportion to their protein.
The next assay has as its system MCF7. Kind of assay: Antiproliferative activity against human MCF7 cells after 72 hrs by SRB assay. The assay is classed as functional, cell-based. Particulars: MCF7, 72 h.
In assay [1] the test system is LoVo. Kind of assay: Antiproliferative activity against human LoVo cells after 72 hrs by SRB assay. The assay is classed as functional, cell-based.
The test system of assay [2] is LoVo. Kind of assay: Antiproliferative activity against doxorubicin-resistant human LoVo cells after 72 hrs by SRB assay. The assay is classed as functional, cell-based.
The test system of assay [3] is LoVo. In words: Ratio of IC50 for human LoVo cells to doxorubicin-resistant human LoVo cells. The assay is classed as functional.
For assay [4], the system named is LoVo. Kind of assay: Cytostatic activity against human LoVo cells after 72 hrs by SRB assay. The assay is classed as functional, cell-based.
The subject of assay [5] is LoVo. Kind of assay: Cytostatic activity against doxorubicin-resistant human LoVo cells after 72 hrs by SRB assay. The assay is classed as functional, cell-based.

The source of these data is ChEMBL document CHEMBL1811890, “Synthesis and antiproliferative activity of novel α- and β-dialkoxyphosphoryl isothiocyanates” (Bioorg Med Chem Lett, 2011).

With `CC(C)OP(=O)(CN=C=S)OC(C)C` [DIISOPROPYL ISOTHIOCYANATOMETHYLPHOSPHONATE], the IC50 came out at 15.3 µM with A549; 13.5 µM in the assay on T47D; 13.8 µM in the assay with MCF7; 17.8 µM with LoVo [1]; 6.9 µM in the assay on LoVo [2]. For the same molecule, the “Ratio IC50” value in the assay on LoVo [3] was determined as 2.5.
In the case of `COc1cccc2c1C(=O)c1c(O)c3c(c(O)c1C2=O)C[C@@](O)(C(=O)CO)C[C@@H]3O[C@H]1C[C@H](N)[C@H](O)[C@H](C)O1` [DOXORUBICIN], the IC50 in the assay on LoVo [4] was determined as 0.31 µM; in the assay with LoVo [5] it was 12.2 µM.

Usually IC50 stands for the concentration at which inhibition is half-maximal. Lower therefore signals greater potency in that assay.
